In PMC9487510, “A Novel Oral GyrB/ParE Dual Binding Inhibitor Effective against Multidrug-Resistant Neisseria gonorrhoeae and Other High-Threat Pathogens” (Antimicrobial Agents and Chemotherapy, 2022):
In brackets after ≈: the same amount, converted by molar mass. Like-named read-outs stand apart in the source and are kept apart here.

Key:
Experiment in all cases: MIC, in vitro susceptibility testing (CLSI)
MRSA = assay type: cell-based, Staphylococcus aureus; conditions: Staphylococcus aureus, MRSA; for MIC: read-out: MIC
VRSA = assay type: cell-based, Staphylococcus aureus; conditions: for MIC: Staphylococcus aureus, VRSA
MRSE = assay type: cell-based, Staphylococcus epidermidis; conditions: for MIC: Staphylococcus epidermidis, MRSE, read-out: MIC

CNc1cc(F)cc2c1[nH]c1nc(Oc3cnc(C)nc3)nc(N3CCC4(CC3)CO[C@@H](CO)C4)c12 [JSF-2414]
MIC (MRSA; strain 2 78 62): 0.031 µg/mL (≈ 0.0628 µM)
MIC (MRSA; strain 2 78 66): 0.031 µg/mL (≈ 0.0628 µM)
MIC (MRSA; strain 2 78 96): 0.031 µg/mL (≈ 0.0628 µM)
MIC (MRSA; strain 2 79 17): 0.062 µg/mL (≈ 0.126 µM)
MIC (MRSA; strain 2 79 22): 0.031 µg/mL (≈ 0.0628 µM)
MIC (MRSA; strain 2 79 25): 0.031 µg/mL (≈ 0.0628 µM)
MIC (MRSA; strain 2 79 29): 0.016 µg/mL (≈ 0.0324 µM)
MIC (MRSA; strain 2 79 33): 0.031 µg/mL (≈ 0.0628 µM)
MIC (MRSA; strain 2 79 65): 0.062 µg/mL (≈ 0.126 µM)
MIC (MRSA; strain 2 79 67 (first listing)): 0.031 µg/mL (≈ 0.0628 µM)
MIC (MRSA; strain 2 79 67 (second listing)): 0.031 µg/mL (≈ 0.0628 µM)
MIC (MRSA; strain 2 80 36): 0.062 µg/mL (≈ 0.126 µM)
MIC (MRSA; strain 2 80 46): 0.031 µg/mL (≈ 0.0628 µM)
MIC (MRSA; strain 2 80 48): 0.031 µg/mL (≈ 0.0628 µM)
MIC (MRSA; strain 2 80 62): 0.031 µg/mL (≈ 0.0628 µM)
MIC (MRSA; strain 2 80 67): 0.062 µg/mL (≈ 0.126 µM)
MIC (MRSA; strain 2 81 54): 0.031 µg/mL (≈ 0.0628 µM)
MIC (MRSA; strain 2 85 12): 0.016 µg/mL (≈ 0.0324 µM)
MIC (MRSA; strain 2 85 13): 0.008 µg/mL (≈ 0.0162 µM)
MIC (MRSA; strain 2 85 14): 0.031 µg/mL (≈ 0.0628 µM)
MIC (MRSA; strain 2 85 32): 0.062 µg/mL (≈ 0.126 µM)
MIC (MRSA; strain 2 87 54): 0.031 µg/mL (≈ 0.0628 µM)
MIC (MRSA; strain 2 87 55): 0.031 µg/mL (≈ 0.0628 µM)
MIC (MRSA; strain 2 87 77): 0.016 µg/mL (≈ 0.0324 µM)
MIC (MRSA; strain 2 88 47): 0.016 µg/mL (≈ 0.0324 µM)
MIC (MRSA; strain 2 88 71): 0.016 µg/mL (≈ 0.0324 µM)
MIC (MRSA; strain 2 88 83): 0.008 µg/mL (≈ 0.0162 µM)
MIC (MRSA; strain 2 88 84): 0.004 µg/mL (≈ 0.0081 µM)
MIC (MRSA; strain 2 89 13): 0.016 µg/mL (≈ 0.0324 µM)
MIC (MRSA; strain 2 89 17): 0.008 µg/mL (≈ 0.0162 µM)
MIC (MRSA; strain 2 90 62): 0.016 µg/mL (≈ 0.0324 µM)
MIC (MRSA; strain 2 90 86): 0.016 µg/mL (≈ 0.0324 µM)
MIC (MRSA; strain 2 90 98): 0.031 µg/mL (≈ 0.0628 µM)
MIC (MRSA; strain 2 91 55): 0.031 µg/mL (≈ 0.0628 µM)
MIC (MRSA; strain 2 91 79): 0.016 µg/mL (≈ 0.0324 µM)
MIC (MRSA; strain 2 91 84): 0.031 µg/mL (≈ 0.0628 µM)
MIC (MRSA; strain 2 93 06): 0.062 µg/mL (≈ 0.126 µM)
MIC (MRSA; strain 2 93 24): 0.031 µg/mL (≈ 0.0628 µM)
MIC (MRSA; strain 2 93 30): 0.031 µg/mL (≈ 0.0628 µM)
MIC (MRSA; strain 2 95 78): 0.031 µg/mL (≈ 0.0628 µM)
MIC (MRSA; strain 2 96 95): 0.031 µg/mL (≈ 0.0628 µM)
MIC (MRSA; strain 2 97 09): 0.016 µg/mL (≈ 0.0324 µM)
MIC (MRSA; strain 3 03 39): 0.016 µg/mL (≈ 0.0324 µM)
MIC (MRSA; strain 3 65 31): 0.016 µg/mL (≈ 0.0324 µM)
MIC (MRSA; strain 3 65 39): 0.016 µg/mL (≈ 0.0324 µM)
MIC (MRSA; strain 3 80 43): 0.002 µg/mL (≈ 0.00405 µM)
MIC (MRSA; strain 3 80 68): 0.008 µg/mL (≈ 0.0162 µM)
MIC (MRSA; strain USA400Padm): 0.062 µg/mL (≈ 0.126 µM)
MIC50 (MRSA; 101 strains): 0.031 µg/mL (≈ 0.0628 µM)
MIC90 (MRSA; 101 strains): 0.062 µg/mL (≈ 0.126 µM)
MIC range (VRSA; N = 7 (Van: 9)): 0.0156 to 0.031 µg/mL
MIC (VRSA; strain 2 25 23): 0.016 µg/mL (≈ 0.0324 µM)
MIC (VRSA; strain 2 25 24): 0.016 to 0.031 µg/mL (≈ 0.0324 to 0.0628 µM)
MIC (VRSA; strain 2 25 25): 0.016 to 0.031 µg/mL (≈ 0.0324 to 0.0628 µM)
MIC (VRSA; strain 2 25 26): 0.0156 to 0.031 µg/mL (≈ 0.0316 to 0.0628 µM)
MIC (VRSA; strain 2 25 27): 0.031 µg/mL (≈ 0.0628 µM)
MIC (VRSA; strain 2 25 28): 0.0156 to 0.031 µg/mL (≈ 0.0316 to 0.0628 µM)
MIC (VRSA; strain VRS2 (VRS-2)): 0.031 µg/mL (≈ 0.0628 µM)
MIC range (MRSE; N = 4): 0.002 to 0.004 µg/mL
MIC (MRSE; strain 9 25): 0.004 µg/mL (≈ 0.0081 µM)
MIC (MRSE; strain 9 26): 0.002 µg/mL (≈ 0.00405 µM)
MIC (MRSE; strain 9 27): 0.002 µg/mL (≈ 0.00405 µM)
MIC (MRSE; strain 9 28): 0.004 µg/mL (≈ 0.0081 µM)
